# Reference: ChEMBL document CHEMBL2440070, “Synthesis and evaluation of novel azetidine analogs as potent inhibitors of vesicular [3H]dopamine uptake” (Bioorg Med Chem, 2013)
# Target: Synaptic vesicular amine transporter (Rattus norvegicus, UniProt Q01827)
# Test: Inhibition of VMAT2-mediated [3H]-dopamine uptake in rat striata isolated synaptic vesicles by liquid scintillation spectroscopy
# Sequence of Synaptic vesicular amine transporter (Q01827 whole entry): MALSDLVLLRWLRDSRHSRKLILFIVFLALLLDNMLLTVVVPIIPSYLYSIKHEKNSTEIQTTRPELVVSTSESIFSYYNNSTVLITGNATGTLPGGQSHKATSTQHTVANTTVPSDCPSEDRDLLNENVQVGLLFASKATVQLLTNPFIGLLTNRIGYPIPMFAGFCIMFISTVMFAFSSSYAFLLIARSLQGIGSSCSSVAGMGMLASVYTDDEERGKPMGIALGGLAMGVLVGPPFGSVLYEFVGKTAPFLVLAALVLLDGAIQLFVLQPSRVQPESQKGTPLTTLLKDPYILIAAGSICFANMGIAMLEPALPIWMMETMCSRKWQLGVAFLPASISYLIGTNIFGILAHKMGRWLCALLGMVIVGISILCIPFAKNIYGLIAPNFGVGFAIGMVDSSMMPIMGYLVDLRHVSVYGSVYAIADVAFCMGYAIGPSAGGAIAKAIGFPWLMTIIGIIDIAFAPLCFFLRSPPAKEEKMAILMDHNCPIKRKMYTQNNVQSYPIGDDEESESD
row,Compound,Ki [nM]
1,c1ccc(CC[C@H]2CCC[C@@H](CCc3ccccc3)N2)cc1,43
2,c1ccc(CC[C@@H]2C[C@H](CCc3ccccc3)N2)cc1,62
3,COc1ccc(CC[C@@H]2C[C@H](CCc3ccc(OC)cc3)N2)cc1,24
4,c1cc2c(cc1CC[C@@H]1C[C@H](CCc3ccc4c(c3)OCO4)N1)OCO2,55
5,c1ccc(CC[C@@H]2C[C@@H](CCc3ccccc3)N2)cc1 (racemic),48
6,COc1ccc(CC[C@@H]2C[C@@H](CCc3ccc(OC)cc3)N2)cc1 (racemic),66
7,c1cc2c(cc1CC[C@@H]1C[C@@H](CCc3ccc4c(c3)OCO4)N1)OCO2 (racemic),31
